# Measured values from article PMC12228513 (Journal of the American Chemical Society, 2025).
# Biological target: T1, AlnA (Streptomyces sp. CM020, UniProt B6SEG5)
# T1 sequence (B6SEG5 1-306): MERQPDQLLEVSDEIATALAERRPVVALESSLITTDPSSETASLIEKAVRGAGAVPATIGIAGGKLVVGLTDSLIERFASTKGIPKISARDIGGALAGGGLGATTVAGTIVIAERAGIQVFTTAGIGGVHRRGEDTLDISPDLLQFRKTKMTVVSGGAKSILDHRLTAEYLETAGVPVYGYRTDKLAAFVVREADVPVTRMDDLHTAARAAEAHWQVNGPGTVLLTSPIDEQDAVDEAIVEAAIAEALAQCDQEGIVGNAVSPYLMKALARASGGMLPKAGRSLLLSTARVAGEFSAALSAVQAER
# Experiment: protein mass spectrometry after NaBH4 trapping
# Assay type: binding
# Settings: covalent; Schiff base at Lys159
smiles,measurement,value
"O=P(O)(O)OC[C@H]1OC(O)[C@H](O)[C@@H]1O (stereo partly shown) [compound 4, ribose 5-phosphate]",protein mass spectrometry after NaBH4 trapping; tryptic proteolysis,the covalent modification occurred at the highly conserved Lys159 residue in AlnA
